Test results from PubChem BioAssay (NCI).
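Briefly, cells in 96-well plates were exposed to five compound concentrations for 48 h, and endpoints were estimated by linear interpolation. GI50: concentration for 50% inhibition of growth. TGI is the concentration that stops growth completely.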

Legend:
Assay in all cases: growth of human tumour cells (NCI), 48 h
[1] = system: 786-0 renal
[2] = system: A498 renal
[3] = system: DMS 114 small cell lung
[4] = system: DMS 273 small cell lung
[5] = system: HL-60(TB) leukemia
[6] = system: HOP-62 NSCLC
[7] = system: HS 578T breast
[8] = system: KM12 colon
[9] = system: MCF7 breast
[10] = system: NCI-H23 lung
[11] = system: SF-268 CNS
[12] = system: SF-295 CNS
[13] = system: SK-MEL-2 melanoma
[14] = system: SK-OV-3 ovarian
[15] = system: SN12C renal
[16] = system: SNB-78 CNS
[17] = system: T-47D breast
[18] = system: UACC-62 melanoma
[19] = system: UO-31 renal

## C[CH2][Sn]([CH2]C)([O]C(=O)c1cccc(OC)c1)[O][Sn]([CH2]C)([CH2]C)[O]C(=O)c1cccc(OC)c1
[1]
  GI50: 17 µM
  TGI: 30.7 µM
[2]
  GI50: 16 µM
  TGI: 30.2 µM
[3]
  GI50: 15.9 µM
  TGI: 30.1 µM
[4]
  GI50: 22.7 µM
  TGI: 58.5 µM
[5]
  GI50: 19.2 µM
  TGI: 70.9 µM
[6]
  GI50: > 58.2 µM
  TGI: > 100 µM
[7]
  GI50: 29.3 µM
  TGI: > 100 µM
[8]
  GI50: > 100 µM
  TGI: > 100 µM
[9]
  GI50: 10.1 µM
  TGI: 26.6 µM
[10]
  GI50: 17.6 µM
  TGI: 36.2 µM
[11]
  GI50: 23.2 µM
  TGI: > 56.6 µM
[12]
  GI50: 20.8 µM
  TGI: 40.3 µM
[13]
  GI50: 16.6 µM
  TGI: 37.4 µM
[14]
  GI50: > 100 µM
  TGI: > 100 µM
[15]
  GI50: 19.9 µM
  TGI: 44.9 µM
[16]
  GI50: 16.2 µM
  TGI: 32.9 µM
[17]
  GI50: 3.05 µM
  TGI: 13.5 µM
[18]
  GI50: 16.6 µM
  TGI: 31.4 µM
[19]
  GI50: 34 µM
  TGI: > 53.5 µM
